This experiment relates to ATP-induced mucin hypersecretion. The experiment can be described thus: Aerosolized Ac-peptide 106 on ATP-induced mucin hypersecretion in mouse model with goblet cell metaplasia. Conditions: aerosol. In kind it is in vivo, BALB/c mice. Here is the method: The efficacy of aerosolized Ac-peptide 106 on mucin hypersecretion in a mouse model of asthma was determined at two concentrations. Briefly, 5- to 8 week old BALB/c mice were immunized weekly as described above in Example 1A for 3 weeks with ovalbumin. On Day 28 the mice were challenged with aerosolized 2.5% ovalbumin in normal saline for 30 minutes. Three days after ovalbumin challenge, each group of mice (n=2) was administered an aerosolized isotonic solution of Ac-peptide 106 at […] or 30 mM for 1 hour with an AeroMist CA-209 nebulizer. The mass median aerodynamic diameter of the aerosol particles was 1.49 um (range 0.4 to 4.7 urn). Given these concentrations of Ac-peptide 106 and this particle size, the calculated pulmonary deposition of Ac-peptide 106 was 0.38 mg/kg body weight and 1.1 mg/kg body weight, respectively.
Ac-peptide 106 administration was immediately followed by aerosol administration of the secretagogue adenosine triphosphate (ATP) ([…] in saline) for 5 minutes. The mice were sacrificed, and the lungs were harvested within 20 minutes. The lungs were rinsed with saline, fixed with paraformaldehyde, embedded in paraffin, and sectioned. The sections were quantitatively analyzed for the presence of mucin by quantitative immunohistochemistry according to the method of Evans et al. (Am. J. Respir. Cell Mol. Biol. Vol. 31, pp 382-394, 2004).

As to Ac-GAQFSKTAAK-OH [Ac-peptide 106], the “Inhibition of ATP-induced mucin hypersecretion” value reads like this: (calculated pulmonary deposition 0.38 mg/kg body weight) 30%; (calculated pulmonary deposition 1.1 mg/kg body weight) 67%.
